Test results from ChEMBL document CHEMBL1201862, “PubChem BioAssay data set” (2004).
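Five concentrations, 48 hours, 96-well plates. GI50 = concentration required for 50% inhibition of growth.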 The source made the active and inactive calls. Rule as the data show it: active = GI50 up to about 1.1 µM and inactive = higher.

Columns and labels:
Assay in all cases: inhibition of tumour cell growth, NCI panel, 48 h
NCI-H226 = test system: NCI-H226
786-0 = test system: 786-0
COLO 205 = test system: COLO 205
MOLT-4 = test system: MOLT-4
HL-60 = test system: HL-60
HOP-92 = test system: HOP-92
SN12C = test system: SN12C
PC-3 = test system: PC-3
UO-31 = test system: UO-31
SF-268 = test system: SF-268
A549 = test system: A549
SF-295 = test system: SF-295
ACHN = test system: ACHN
CCRF-CEM = test system: CCRF-CEM
SK-MEL-28 = test system: SK-MEL-28
MDA-MB-435 = test system: MDA-MB-435
BT-549 = test system: BT-549
OVCAR-5 = test system: OVCAR-5
NCI-H23 = test system: NCI-H23
T47D = test system: T47D

Compound | GI50 (NCI-H226) | GI50 (786-0) | GI50 (COLO 205) | GI50 (MOLT-4) | GI50 (HL-60) | GI50 (HOP-92) | GI50 (SN12C) | GI50 (PC-3) | GI50 (UO-31) | GI50 (SF-268) | GI50 (A549) | GI50 (SF-295) | GI50 (ACHN) | GI50 (CCRF-CEM) | GI50 (SK-MEL-28) | GI50 (MDA-MB-435) | GI50 (BT-549) | GI50 (OVCAR-5) | GI50 (NCI-H23) | GI50 (T47D)
COC1(OC)CC(CO)(CNc2nc(N)nc(Cl)c2C=O)C1 | 93.3 µM (inactive) | > 100 µM (inactive) | > 100 µM (inactive) | 21.1 µM (inactive) | 13.6 µM (inactive) | 14.6 µM (inactive) | 28.4 µM (inactive) | 24 µM (inactive) | 60.1 µM (inactive) | 44.2 µM (inactive) | 59 µM (inactive) | > 100 µM (inactive) | 3.48 µM (inactive) | 27.8 µM (inactive) | 50 µM (inactive) | 25.8 µM (inactive) | 48.5 µM (inactive) | > 100 µM (inactive) | 17.6 µM (inactive) | 
O=S(=O)(N=[Se](=O)(c1ccccc1)c1ccccc1)c1ccccc1 | > 100 µM (inactive) | > 100 µM (inactive) | > 100 µM (inactive) | > 100 µM (inactive) | 25.1 µM (inactive) | > 100 µM (inactive) | > 100 µM (inactive) | > 100 µM (inactive) | 58.1 µM (inactive) | > 100 µM (inactive) |  | > 100 µM (inactive) | > 100 µM (inactive) | > 100 µM (inactive) | > 100 µM (inactive) | > 100 µM (inactive) |  | > 100 µM (inactive) | > 100 µM (inactive) | > 100 µM (inactive)
CC(C)C1=C(Cc2ccccc2)C(=O)O/C1=C\c1cc(Cl)c(O)c(Cl)c1 | 20.3 µM (inactive) | 17.1 µM (inactive) | 17.4 µM (inactive) | 21.2 µM (inactive) | 16.3 µM (inactive) |  | 17.2 µM (inactive) | 16.9 µM (inactive) | 14.1 µM (inactive) | 22.6 µM (inactive) | 21.6 µM (inactive) | 16 µM (inactive) | 17.3 µM (inactive) | 16 µM (inactive) | 18.5 µM (inactive) | 17.3 µM (inactive) | > 10 µM (inactive) | 21.7 µM (inactive) | 13.8 µM (inactive) | 
Clc1ccc(CCN[C@H]2CCCC[C@H]2N2CCCC2)cc1Cl | 21.1 µM (inactive) | 24 µM (inactive) | 13.6 µM (inactive) | 24.4 µM (inactive) | 20.1 µM (inactive) |  | 20.2 µM (inactive) | 27.9 µM (inactive) | 13.6 µM (inactive) | 32.2 µM (inactive) | 26.4 µM (inactive) | 16 µM (inactive) | 38.6 µM (inactive) | 30.7 µM (inactive) | 28.9 µM (inactive) | 18.5 µM (inactive) | 26.2 µM (inactive) | 20.6 µM (inactive) | 23.8 µM (inactive) | 
CCCCCCCCC#CCCCCCCC(F)C(=O)O (stereo not drawn) | > 100 µM (inactive) | > 100 µM (inactive) | > 100 µM (inactive) | > 100 µM (inactive) | 25 µM (inactive) | > 100 µM (inactive) |  | > 100 µM (inactive) | > 100 µM (inactive) | > 100 µM (inactive) | > 100 µM (inactive) | > 100 µM (inactive) | > 100 µM (inactive) | > 100 µM (inactive) | > 100 µM (inactive) | > 100 µM (inactive) |  | > 100 µM (inactive) | > 100 µM (inactive) | > 100 µM (inactive)
COc1ccc(/C=C(\C#N)c2ccccn2)cc1OC | 27.2 µM (inactive) | 43.9 µM (inactive) | 69.2 µM (inactive) | 57.4 µM (inactive) | 27.1 µM (inactive) | 17 µM (inactive) | 53 µM (inactive) | 22.8 µM (inactive) | 29.8 µM (inactive) | 33 µM (inactive) | 41.5 µM (inactive) | 26.8 µM (inactive) | 55.8 µM (inactive) | 60.5 µM (inactive) | 38.4 µM (inactive) |  | 18.6 µM (inactive) | 51.4 µM (inactive) | 43.7 µM (inactive) | 
O=C(CCN1CCCC1)c1ccc(Oc2ccc(F)cc2)cc1 | > 100 µM (inactive) | 16.6 µM (inactive) | 23 µM (inactive) | 24.4 µM (inactive) | 16 µM (inactive) | 15 µM (inactive) | 97.1 µM (inactive) | 38.5 µM (inactive) | 50.9 µM (inactive) | 87.3 µM (inactive) | > 100 µM (inactive) | 90.2 µM (inactive) | > 100 µM (inactive) | 26.5 µM (inactive) | > 100 µM (inactive) | > 100 µM (inactive) | 74 µM (inactive) | > 100 µM (inactive) | > 100 µM (inactive) | 
O=C(O)CCCNS(=O)(=O)c1ccc2ccccc2c1 | > 100 µM (inactive) | > 100 µM (inactive) | > 100 µM (inactive) | > 100 µM (inactive) | > 100 µM (inactive) | 97.7 µM (inactive) | > 100 µM (inactive) |  | > 100 µM (inactive) | > 100 µM (inactive) | > 100 µM (inactive) | > 100 µM (inactive) | > 100 µM (inactive) | > 100 µM (inactive) | > 100 µM (inactive) |  |  | > 100 µM (inactive) | > 100 µM (inactive) | 
O=C(c1cc2c(C(F)(F)F)onc2c2ccccc12)C(F)(F)F | 3.01 µM (inactive) | 1.93 µM (inactive) | 3.08 µM (inactive) | 1.15 µM (inactive) | 0.984 µM (active) | 1.58 µM (inactive) | 0.614 µM (active) |  | 1.7 µM (inactive) | 2.75 µM (inactive) | 4.51 µM (inactive) | 2.58 µM (inactive) | 2.89 µM (inactive) | 0.34 µM (active) | 3.44 µM (inactive) |  |  | 6.9 µM (inactive) | 0.929 µM (active) | 
CN1C(=O)C2C(C1=O)C1(O)c3ccccc3C2(N)c2ccccc21 (stereo not drawn) | > 100 µM (inactive) | > 100 µM (inactive) | > 100 µM (inactive) | > 100 µM (inactive) | > 100 µM (inactive) | > 100 µM (inactive) | > 100 µM (inactive) |  | > 100 µM (inactive) | > 100 µM (inactive) | > 100 µM (inactive) | > 100 µM (inactive) | > 100 µM (inactive) | > 100 µM (inactive) | > 100 µM (inactive) |  |  | > 100 µM (inactive) | > 100 µM (inactive) | 
CC(=O)OC12c3ccccc3C(c3ccccc31)C1C(=O)N(Nc3ccccc3)C(=O)C12 (stereo not drawn) | > 100 µM (inactive) | > 100 µM (inactive) | > 100 µM (inactive) | > 100 µM (inactive) | > 100 µM (inactive) |  | > 100 µM (inactive) | > 100 µM (inactive) | > 100 µM (inactive) | > 100 µM (inactive) | > 100 µM (inactive) | > 100 µM (inactive) | > 100 µM (inactive) | > 100 µM (inactive) | > 100 µM (inactive) |  | > 100 µM (inactive) | > 100 µM (inactive) | > 100 µM (inactive) | > 100 µM (inactive)
C=C(CO)CC(O)c1ccccc1 (stereo not drawn) | > 100 µM (inactive) | > 100 µM (inactive) | > 100 µM (inactive) | > 100 µM (inactive) | > 100 µM (inactive) | > 100 µM (inactive) | > 100 µM (inactive) |  | > 100 µM (inactive) | > 100 µM (inactive) | > 100 µM (inactive) | > 100 µM (inactive) | > 100 µM (inactive) | > 100 µM (inactive) | > 100 µM (inactive) |  |  | > 100 µM (inactive) | > 100 µM (inactive) | 
CC1=C(/C=C/C(C)=C/C=C/C(C)=C/CO)C(C)(C)CCC1 [RETINOL] | 20.7 µM (inactive) | 17.2 µM (inactive) | 19.1 µM (inactive) | 18 µM (inactive) | 23.4 µM (inactive) |  | 21.7 µM (inactive) | 38.9 µM (inactive) | 17.7 µM (inactive) | 28.6 µM (inactive) | 19.1 µM (inactive) | 24.2 µM (inactive) | 29.4 µM (inactive) | 22.3 µM (inactive) | 25.5 µM (inactive) | 22.1 µM (inactive) |  | 24.9 µM (inactive) | 21.8 µM (inactive) | 14.5 µM (inactive)
CCc1c2c(nc3ccc(O)cc13)-c1cc3c(c(=O)n1C2)COC(=O)[C@]3(O)CC [7-ETHYL-10-HYDROXYCAMPTOTHECIN] | < 0.001 µM (active) | < 0.001 µM (active) | 0.0556 µM (active) | < 0.001 µM (active) | < 0.001 µM (active) |  | < 0.001 µM (active) | 0.00746 µM (active) |  | < 0.001 µM (active) | 0.0525 µM (active) | < 0.001 µM (active) | < 0.001 µM (active) | < 0.001 µM (active) | 0.0194 µM (active) |  | < 0.001 µM (active) | 0.00472 µM (active) | < 0.001 µM (active) | < 0.001 µM (active)
NS(=O)(=O)c1cc(S(N)(=O)=O)c(NC(=O)N(c2ccccc2)c2ccccc2)c(Cl)c1Cl | 18.9 µM (inactive) | 30.1 µM (inactive) | 22.9 µM (inactive) | 12.4 µM (inactive) | 24.8 µM (inactive) | 1.72 µM (inactive) | 19.5 µM (inactive) | 24 µM (inactive) | 20.2 µM (inactive) | 42.2 µM (inactive) | 31.8 µM (inactive) | 30.2 µM (inactive) | 23.2 µM (inactive) | 1.98 µM (inactive) | 34.4 µM (inactive) | 21.5 µM (inactive) | 15.9 µM (inactive) | 42.1 µM (inactive) | 20 µM (inactive) | 
[N-]=[N+]=NI1OC(=O)c2ccccc21 | > 100 µM (inactive) | > 100 µM (inactive) | 48.5 µM (inactive) | 66.8 µM (inactive) | 40.5 µM (inactive) | 44.9 µM (inactive) | > 100 µM (inactive) | > 100 µM (inactive) | > 100 µM (inactive) | 73.6 µM (inactive) | > 100 µM (inactive) | > 100 µM (inactive) | 65.9 µM (inactive) | 37.9 µM (inactive) | 47.2 µM (inactive) | 67.3 µM (inactive) |  | 66.5 µM (inactive) | > 100 µM (inactive) | > 100 µM (inactive)
